For one data set, the target named is QsuB (Corynebacterium glutamicum, UniProt Q8NT86). Description: DSD activity assay of purified QsuB (3,4-DHBA formation at 290 nm). The format is biochemical.
A further data set concerns the target N-QsuB (Corynebacterium glutamicum, UniProt Q8NT86). The experiment in a line: DSD activity assay of purified N-QsuB (N-terminal domain of QsuB). Type of data set: biochemical.
A further data set deals with E. coli. The conditions noted are these: cited from earlier work.
The next data set has as its system C. glutamicum. The conditions noted are these: cited from earlier work.
The test system of a further data set is QsuB C-terminal domain. The experiment in a line: Test of dioxygenase activity of the C-terminal domain towards 3,4-DHBA (UV spectrum). Type of data set: biochemical, Corynebacterium glutamicum. To be noted: pH 7.5, incubation with QsuB up to 60 min. As for the experimental part:
An inhibition type and inhibition constants of the enzyme reaction were determined by a graphical method. The experimental data were plotted as (Vmax–v)/v versus the inhibitor concentration (0 ‒ 0.4 mM 3,4-DHBA) at 0.5/ 1/ 1.5 mM concentrations of DHS, where Vmax and v represented the maximal velocity and the velocity in the absence and presence of inhibitor with given concentrations of the substrate, respectively. The dioxygenase activity of the C-terminal domain was tested with the crude extracts in the reaction mixture of 0.1 M Tris/HCl buffer (pH 7.5), 10 mM MgCl2, 0.1 mM DHBA, and 30 nM of overall protein.
Thus, a possible activity of the C-terminal domain leading to conversion of 3,4-DHBA into another product was not detected under our experimental conditions.

In the next data set the test system is AsbF B. t. 97-27. Also on record: method as in PMID 18975921. The conditions noted are these: pH 8.6, 37°C ref [12], cited from earlier work.
Another data set has as its system QuiC1. Also on record: method as in PMID 27706847. The conditions noted are these: cited from earlier work.
The target of data set [1] is QsuB, dehydroshikimate dehydratase (DSD) from Corynebacterium glutamicum (Corynebacterium glutamicum). The experiment in a line: SEC; Superose 6 Increase 10/300 GL; 50 mM Tris-HCl (pH 7.5), 500 mM NaCl, 5% v/v glycerol; 0.4 ml/min; A280; mass from a calibration curve of standard proteins; self-association of QsuB. Background: Size exclusion chromatography separates by hydrodynamic size, large species first.

The target in data set [2] is N-QsuB, N-terminal domain of QsuB (Corynebacterium glutamicum). Description: SEC; Superose 6 Increase 10/300 GL; 50 mM sodium phosphate (pH 7.0), 150 mM NaCl; 0.5 ml/min; A280; mass from a calibration curve of standard proteins; self-association of N-QsuB.
Substrate in data set [3]: O=C(O)C1=CC(=O)C(O)C(O)C1
Description: DSD activity assay of purified N-QsuB (N-terminal domain of QsuB). Type of data set: biochemical, Corynebacterium glutamicum. To be noted: other: N-QsuB, pH 7.5, 20°C.

Setting [4] is: QsuB, 1 mM DHS, 10 mM metal salt, normalized against cobalt.
The mark [5] stands for this setting: N-QsuB, 1 mM DHS, 10 mM metal salt, normalized against cobalt.

The values that follow come from article PMC7442255, “Characterization of the Corynebacterium glutamicum dehydroshikimate dehydratase QsuB and its potential for microbial production of protocatechuic acid” (PLoS ONE, 2020).

Values joined by “and” are separate entries in the source; they are usually repeats but may differ in a detail not shown here. Equal values may be shown once. Read-outs that look alike come from different tables or passages of the source.

As a reminder, the Ki is the dissociation constant of the complex between target and ligand, obtained from inhibition or displacement. One may read the kcat as the number of substrate molecules converted per active site and unit of time at saturation. One may read the IC50 as the concentration needed to halve the response being measured. The term Km denotes the substrate concentration at which the rate is half of its maximum. As a reminder, the stoichiometry N is the number of molecules, sites or subunits per partner or assembly. By kcat/Km is commonly meant the turnover number divided by the Michaelis constant.

Chain of QsuB (Q8NT86 entry or part of it): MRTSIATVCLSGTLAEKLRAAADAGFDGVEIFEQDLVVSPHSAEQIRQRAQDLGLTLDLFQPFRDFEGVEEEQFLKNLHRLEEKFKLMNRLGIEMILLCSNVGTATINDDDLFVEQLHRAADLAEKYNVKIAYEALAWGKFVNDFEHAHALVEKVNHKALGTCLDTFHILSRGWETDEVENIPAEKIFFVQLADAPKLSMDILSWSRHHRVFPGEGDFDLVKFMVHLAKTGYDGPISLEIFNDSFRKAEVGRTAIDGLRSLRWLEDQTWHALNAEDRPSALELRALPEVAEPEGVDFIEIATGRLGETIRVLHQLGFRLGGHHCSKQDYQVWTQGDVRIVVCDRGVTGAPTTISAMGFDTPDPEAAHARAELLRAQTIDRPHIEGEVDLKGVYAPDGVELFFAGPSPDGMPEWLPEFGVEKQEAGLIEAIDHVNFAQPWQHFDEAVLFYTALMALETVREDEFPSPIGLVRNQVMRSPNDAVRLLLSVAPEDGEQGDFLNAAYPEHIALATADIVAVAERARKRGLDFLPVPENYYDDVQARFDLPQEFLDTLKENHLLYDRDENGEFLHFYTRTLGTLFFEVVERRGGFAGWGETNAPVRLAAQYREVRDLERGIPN

`[Cl][Mn][Cl]` [Mn, MnCl2]: the results for the “Specific activity (relative DSD activity with divalent metal)” value on QsuB (setting [4]) and at N-QsuB (setting [5]) were 17% and 21%, respectively.

As for `[Cl-].[Cl-].[Mg+2]` [Mg, MgCl2], the “Specific activity (relative DSD activity with divalent metal)” value worked out at 24% at QsuB (setting [4]) and 22% at N-QsuB (setting [5]).

Turning to `[Cl-].[Cl-].[Co+2]` [Co, CoCl2], the “Specific activity (relative DSD activity with divalent metal)” value on QsuB and at N-QsuB was 100% each time. In addition, the “Co^2+ concentration tolerated” value with E. coli is < 1 mM. The “Co^2+ concentration at which growth is possible” value in the data set on C. glutamicum is 2 mM.

With `O=C(O)CN(CCN(CC(=O)O)CC(=O)O)CC(=O)O` [EDTA], the “effect on DSD activity without added metal ions” value on QsuB and on N-QsuB was “inhibited” in each case.

On to `O=C(O)c1ccc(O)c(O)c1` [3,4-DHBA, 3,4-dihydroxybenzoic acid], for which the inhibition type result was “mix inhibition type” at QsuB (QsuB, quotient velocity plot) and “noncompetitive inhibition” against N-QsuB (N-QsuB, quotient velocity plot). In addition, the “Ki' (binding to the enzyme-substrate complex)” value on QsuB (QsuB, quotient velocity plot, 0.5/1/1.5 mM DHS) was ~ 0.96 mM. For the same molecule, the Ki on QsuB (QsuB, quotient velocity plot, 0.5/1/1.5 mM DHS, read-out: Ki (binding to the enzyme)) is ~380 µM; on N-QsuB (N-QsuB, quotient velocity plot, 0.5/1/1.5 mM DHS, read-out: Ki (binding to the enzyme)), ~690 µM. In addition, the “conversion of 3,4-DHBA (change of UV spectrum)” value with QsuB C-terminal domain is “no difference in the UV spectrum was observed”.

Take `O=C(O)C1=CC(=O)C(O)C(O)C1` (stereo not shown) [DHS, 3-dehydroshikimic acid]: the kcat was 60.8 ± 0.9 s⁻¹ on QsuB (QsuB, substrate DHS, pH 7.5, 20°C); 3.6 ± 0.2 s⁻¹ in the data set on AsbF B. t. 97-27 (substrate DHS); 163.6 ± 8.5 s⁻¹ with QuiC1 (QuiC1, substrate DHS, pH 7.5, 25°C ref [15]). The IC50 on QsuB (QsuB, substrate inhibition, calculated from data of Fig 6, read-out: IC50 (decrease of DSD activity by substrate DHS)) was ~4200 µM; at N-QsuB (N-QsuB, substrate inhibition, calculated from data of Fig 6, read-out: IC50 (decrease of DSD activity by substrate DHS)) it was ~5500 µM. For the same molecule, the Km in the data set with AsbF B. t. 97-27 (read-out: Km (DHS)) is 125 ± 14 µM; with QuiC1 (QuiC1, pH 7.5, 25°C ref [15], read-out: Km (DHS)) it was 331 ± 51 µM.

“QsuB, dehydroshikimate dehydratase (DSD) from Corynebacterium glutamicum (enzyme)”: in [1], the percent present as monomers is 15%; the percent present as octamers was found to be 60%; the percent present as tetramers is 25%; the stoichiometry N was 8 and 4.

“N-QsuB, N-terminal domain of QsuB (domain or fragment)” returned a stoichiometry N in data set [2] of 2.

B1: N-QsuB (Corynebacterium glutamicum ATCC 13032) (protein)
chain: MRTSIATVCLSGTLAEKLRAAADAGFDGVEIFEQDLVVSPHSAEQIRQRAQDLGLTLDLFQPFRDFEGVEEEQFLKNLHRLEEKFKLMNRLGIEMILLCSNVGTATINDDDLFVEQLHRAADLAEKYNVKIAYEALAWGKFVNDFEHAHALVEKVNHKALGTCLDTFHILSRGWETDEVENIPAEKIFFVQLADAPKLSMDILSWSRHHRVFPGEGDFDLVKFMVHLAKTGYDGPISLEIFNDSFRKAEVGRTAIDGLRSLRWLEDQTWHALNAEDRPSALELRALPEVAEPEGVDF
As for B1, in data set [3], the Km is 473 ± 71 µM, the catalytic constant (kcat) worked out at 23.4 ± 0.4 s⁻¹ and the kcat/Km was 49500 ± 5600 M⁻¹ s⁻¹.
